Measurements as given in ChEMBL document CHEMBL1201861, “Genomics of Drug Sensitity in Cancer screening data, Wellcome Trust Sanger Institute”.
pIC50: −log10 of the molar value.

Experiments:
CPC-N = assay: cells; assay type: functional, cell-based, Homo sapiens; settings: Homo sapiens, CPC-N;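 also: growth inhibition of CPC-N cells, with a cell viability assay as the readout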
Description: SANGER: Inhibition of human CPC-N cell growth in a cell viability assay.

Ca9-22 = assay: cells; assay type: functional, cell-based; settings: Homo sapiens;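 also: growth inhibition of Ca9-22 cells, read out with a cell viability assay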
Description: SANGER: Inhibition of human Ca9-22 cell growth in a cell viability assay.

CaR-1 = assay: cells; assay type: functional, cell-based; settings: Homo sapiens;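 also: growth inhibition of human CaR-1 cancer cells, read out with a cell viability assay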
Description: SANGER: Inhibition of human CaR-1 cell growth in a cell viability assay.

Capan-2 = assay: cells; assay type: functional, cell-based; settings: Homo sapiens;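 also: Capan-2 cell growth inhibition, read out with a viability assay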
Description: SANGER: Inhibition of human Capan-2 cell growth in a cell viability assay.

Daoy = assay: cells; assay type: functional, cell-based; settings: Homo sapiens;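 also: daoy cell growth inhibition, read out as cell viability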
Description: SANGER: Inhibition of human Daoy cell growth in a cell viability assay.

EB-3 = assay: cells; assay type: functional, cell-based, Homo sapiens; settings: Homo sapiens, EB-3;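 also: human EB-3 cells, growth inhibition read out via a cell viability assay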
Description: SANGER: Inhibition of human EB-3 cell growth in a cell viability assay.

H4 = assay: cells; assay type: functional, cell-based; settings: Homo sapiens
Description: SANGER: Inhibition of human H4 cell growth in a cell viability assay.

HCC1806 = assay: cells; assay type: functional, cell-based; settings: Homo sapiens;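 also: growth inhibition of the cancer cell line, determined with a cell viability assay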
Description: SANGER: Inhibition of human HCC1806 cell growth in a cell viability assay.

HCC38 = assay: cells; assay type: functional, cell-based; settings: Homo sapiens;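 also: cell viability assay on the human HCC38 cell line, with IC50 marking the concentration that inhibits cell growth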
Description: SANGER: Inhibition of human HCC38 cell growth in a cell viability assay.

HCC70 = assay: cells; assay type: functional, cell-based; settings: Homo sapiens;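 also: cell viability assay measuring how strongly the compound suppresses proliferation of HCC70 cells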
Description: SANGER: Inhibition of human HCC70 cell growth in a cell viability assay.

HEC-1 = assay: cells; assay type: functional, cell-based; settings: Homo sapiens;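 also: growth inhibition of the cell line, read out with a cell viability assay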
Description: SANGER: Inhibition of human HEC-1 cell growth in a cell viability assay.

HOP-92 = assay: cells; assay type: functional, cell-based; settings: Homo sapiens;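 also: cell viability readout, with IC50 reflecting inhibition of HOP-92 cell growth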
Description: SANGER: Inhibition of human HOP-92 cell growth in a cell viability assay.

HOS = assay: cells; assay type: functional, cell-based; settings: Homo sapiens;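 also: growth inhibition of human HOS cells, read out with a cell viability assay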
Description: SANGER: Inhibition of human HOS cell growth in a cell viability assay.

HT-1376 = assay: cells; assay type: functional, cell-based; settings: Homo sapiens
Description: SANGER: Inhibition of human HT-1376 cell growth in a cell viability assay.

HT-3 = assay: cells; assay type: functional, cell-based; settings: Homo sapiens;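 also: growth inhibition measured with a cell viability readout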
Description: SANGER: Inhibition of human HT-3 cell growth in a cell viability assay.

HuO-3N1 = assay: cells; assay type: functional, cell-based; settings: Homo sapiens;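 also: cell viability readout used to measure how strongly compounds suppress proliferation of human HuO-3N1 cells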
Description: SANGER: Inhibition of human HuO-3N1 cell growth in a cell viability assay.

IMR-5 = assay: cells; assay type: functional, cell-based, Homo sapiens; settings: Homo sapiens, IMR-5; read-out: IC50;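 also: growth inhibition of human IMR-5 cells, read out with a cell viability assay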
Description: SANGER: Inhibition of human IMR-5 cell growth in a cell viability assay.

JIYOYE = assay: cells; assay type: functional, cell-based, Homo sapiens; settings: Homo sapiens, JIYOYE
Description: SANGER: Inhibition of human JiyoyeP-2003 cell growth in a cell viability assay.

KARPAS-422 = assay: cells; assay type: functional, cell-based, Homo sapiens; settings: Homo sapiens, KARPAS-422
Description: SANGER: Inhibition of human KARPAS-422 cell growth in a cell viability assay.

Kasumi 1 = assay: cells; assay type: functional, cell-based, Homo sapiens; settings: Homo sapiens, Kasumi 1;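 also: growth inhibition of human Kasumi-1 cells, read out by a cell viability assay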
Description: SANGER: Inhibition of human KASUMI-1 cell growth in a cell viability assay.

KU-19-19 = assay: cells; assay type: functional, cell-based; settings: Homo sapiens
Description: SANGER: Inhibition of human KU-19-19 cell growth in a cell viability assay.

KYSE-70 cell line = assay: cells; assay type: functional, cell-based; settings: Homo sapiens;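 also: cell viability assay read-out, with IC50 expressing suppression of KYSE-70 cell growth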
Description: SANGER: Inhibition of human KYSE-70 cell growth in a cell viability assay.

LB647-SCLC = assay: cells; assay type: functional, cell-based, Homo sapiens; settings: Homo sapiens, LB647-SCLC;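 also: cell growth inhibition, read out by a viability assay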
Description: SANGER: Inhibition of human LB647-SCLC cell growth in a cell viability assay.

LC4-1 = assay: cells; assay type: functional, cell-based, Homo sapiens; settings: Homo sapiens, LC4-1;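 also: growth inhibition of LC4-1 cells, read out with a cell viability assay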
Description: SANGER: Inhibition of human LC4-1 cell growth in a cell viability assay.

LK-2 = assay: cells; assay type: functional, cell-based; settings: Homo sapiens;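 also: growth inhibition of LK-2 cells, read out with a viability assay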
Description: SANGER: Inhibition of human LK-2 cell growth in a cell viability assay.

M059J = assay: cells; assay type: functional, cell-based; settings: Homo sapiens;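 also: growth inhibition of M059J cells, read out with a cell viability assay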
Description: SANGER: Inhibition of human M059J cell growth in a cell viability assay.

MDA-MB-453 = assay: cells; assay type: functional, cell-based; settings: Homo sapiens
Description: SANGER: Inhibition of human MDA-MB-453 cell growth in a cell viability assay.

NB1 = assay: cells; assay type: functional, cell-based, Homo sapiens; settings: Homo sapiens, NB1
Description: SANGER: Inhibition of human NB1 cell growth in a cell viability assay.

NCI-H1436 = assay: cells; assay type: functional, cell-based, Homo sapiens; settings: Homo sapiens, NCI-H1436;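 also: growth suppression of human NCI-H1436 cells, determined with a cell viability readout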
Description: SANGER: Inhibition of human NCI-H1436 cell growth in a cell viability assay.

NCI-H1694 = assay: cells; assay type: functional, cell-based, Homo sapiens; settings: Homo sapiens, NCI-H1694;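 also: cell viability assay measuring inhibition of growth in human NCI-H1694 cells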
Description: SANGER: Inhibition of human NCI-H1694 cell growth in a cell viability assay.

NCI-H2052 = assay: cells; assay type: functional, cell-based; settings: Homo sapiens;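 also: growth inhibition of NCI-H2052 cells, read out with a cell viability assay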
Description: SANGER: Inhibition of human NCI-H2052 cell growth in a cell viability assay.

NCI-H2170 = assay: cells; assay type: functional, cell-based; settings: Homo sapiens;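 also: cell viability assay measuring growth inhibition of human NCI-H2170 cancer cells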
Description: SANGER: Inhibition of human NCI-H2170 cell growth in a cell viability assay.

NCI-H2228 = assay: cells; assay type: functional, cell-based; settings: Homo sapiens;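 also: growth inhibition of human NCI-H2228 cells, read out by a cell viability assay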
Description: SANGER: Inhibition of human NCI-H2228 cell growth in a cell viability assay.

NCI-H716 = assay: cells; assay type: functional, cell-based, Homo sapiens; settings: Homo sapiens, NCI-H716;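 also: growth inhibition of human NCI-H716 cells, measured by a cell viability assay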
Description: SANGER: Inhibition of human NCI-H716 cell growth in a cell viability assay.

NCI-H748 = assay: cells; assay type: functional, cell-based, Homo sapiens; settings: Homo sapiens, NCI-H748;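 also: growth inhibition of NCI-H748 cells, measured by a cell viability assay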
Description: SANGER: Inhibition of human NCI-H748 cell growth in a cell viability assay.

PC-3 = assay: cells; assay type: functional, cell-based; settings: Homo sapiens;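 also: cell viability assay measuring growth inhibition of PC-3 cells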
Description: SANGER: Inhibition of human PC-3 cell growth in a cell viability assay.

PFSK-1 = assay: cells; assay type: functional, cell-based; settings: Homo sapiens;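 also: cell viability assay measuring how strongly compounds suppress growth of human PFSK-1 cells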
Description: SANGER: Inhibition of human PFSK-1 cell growth in a cell viability assay.

REH = assay: cells; assay type: functional, cell-based, Homo sapiens; settings: Homo sapiens, REH;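 also: growth inhibition of REH cells determined with a cell viability read-out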
Description: SANGER: Inhibition of human REH cell growth in a cell viability assay.

RPMI-6666 = assay: cells; assay type: functional, cell-based, Homo sapiens; settings: Homo sapiens, RPMI-6666
Description: SANGER: Inhibition of human RPMI-6666 cell growth in a cell viability assay.

RT-112 = assay: cells; assay type: functional, cell-based; settings: Homo sapiens
Description: SANGER: Inhibition of human RT-112 cell growth in a cell viability assay.

SCC-4 = assay: cells; assay type: functional, cell-based; settings: Homo sapiens;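 also: growth inhibition of human SCC-4 cells, read out as cell viability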
Description: SANGER: Inhibition of human SCC-4 cell growth in a cell viability assay.

SK-MES-1 = assay: cells; assay type: functional, cell-based; settings: Homo sapiens;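 also: growth inhibition of human SK-MES-1 cells, read out with a cell viability assay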
Description: SANGER: Inhibition of human SK-MES-1 cell growth in a cell viability assay.

SU-DHL-1 = assay: SANGER: Inhibition of human SU-DHL-1 cell growth in a cell viability assay.; assay type: functional, cell-based; settings: Homo sapiens, SU-DHL-1
SW1417 = assay: cells; assay type: functional, cell-based; settings: Homo sapiens;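 also: growth inhibition of human SW1417 cells, read out with a cell viability assay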
Description: SANGER: Inhibition of human SW1417 cell growth in a cell viability assay.

T84 = assay: cells; assay type: functional, cell-based; settings: Homo sapiens;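 also: growth inhibition measured with a cell viability readout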
Description: SANGER: Inhibition of human T84 cell growth in a cell viability assay.

T98G = assay: cells; assay type: functional, cell-based; settings: Homo sapiens;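 also: growth inhibition of T98G cells, read out by a cell viability assay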
Description: SANGER: Inhibition of human T98G cell growth in a cell viability assay.

A2058 = assay: cells; assay type: functional, cell-based; settings: Homo sapiens;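 also: reduction of A2058 cell growth, read out with a viability assay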
Description: SANGER: Inhibition of human A2058 cell growth in a cell viability assay.

ACHN = assay: cells; assay type: functional, cell-based; settings: Homo sapiens;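 also: cell viability read-out used to gauge how strongly growth of human ACHN cells is suppressed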
Description: SANGER: Inhibition of human ACHN cell growth in a cell viability assay.

BC1 cell line = assay: SANGER: Inhibition of human BC-1 cell growth in a cell viability assay.; assay type: functional, cell-based; settings: Homo sapiens, BC1
BC-3 = assay: cells; assay type: functional, cell-based, Homo sapiens; settings: Homo sapiens, BC-3;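 also: cell viability assay measuring growth inhibition of human BC-3 cells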
Description: SANGER: Inhibition of human BC-3 cell growth in a cell viability assay.

BFTC-909 = assay: cells; assay type: functional, cell-based; settings: Homo sapiens
Description: SANGER: Inhibition of human BFTC-909 cell growth in a cell viability assay.

BHY = assay: cells; assay type: functional, cell-based; settings: Homo sapiens;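 also: cell growth inhibition read out by a viability assay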
Description: SANGER: Inhibition of human BHY cell growth in a cell viability assay.

CAKI-1 = assay: cells; assay type: functional, cell-based; settings: Homo sapiens;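 also: growth inhibition of CAKI-1 cells, measured by a cell viability assay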
Description: SANGER: Inhibition of human CAKI-1 cell growth in a cell viability assay.

TYK-nu = assay: cells; assay type: functional, cell-based; settings: Homo sapiens;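 also: growth inhibition of human TYK-nu cells, read out by a cell viability assay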
Description: SANGER: Inhibition of human TYK-nu cell growth in a cell viability assay.

CESS = assay: SANGER: Inhibition of human CESS cell growth in a cell viability assay.; assay type: functional, cell-based; settings: Homo sapiens, CESS
NB17 = assay: cells; assay type: functional, cell-based, Homo sapiens; settings: Homo sapiens, NB17;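 also: growth inhibition of NB17 cells, read out with a cell viability assay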
Description: SANGER: Inhibition of human NB17 cell growth in a cell viability assay.

NB7 = assay: cells; assay type: functional, cell-based, Homo sapiens; settings: Homo sapiens, NB7;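 also: growth inhibition of NB7 cells, read out with a cell viability assay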
Description: SANGER: Inhibition of human NB7 cell growth in a cell viability assay.

SMILES: Cc1ccc(C(=O)Nc2ccc(CN3CCN(C)CC3)c(C(F)(F)F)c2)cc1C#Cc1cnc2cccnn12 [PONATINIB]
- pIC50 (CPC-N): < 6.29
- pIC50 (Ca9-22): < 6.29
- pIC50 (CaR-1): < 6.29
- pIC50 (Capan-2): < 6.29
- pIC50 (Daoy): < 6.29
- pIC50 (EB-3): < 6.29
- pIC50 (H4): 6.37
- pIC50 (HCC1806): < 6.29
- pIC50 (HCC38): < 6.29
- pIC50 (HCC70): < 6.29
- pIC50 (HEC-1): < 6.29
- pIC50 (HOP-92): < 6.29
- pIC50 (HOS): 6.30
- pIC50 (HT-1376): < 6.29
- pIC50 (HT-3): < 6.29
- pIC50 (HuO-3N1): < 6.29
- pIC50 (IMR-5): < 6.29
- pIC50 (JIYOYE): < 6.29
- pIC50 (KARPAS-422): < 6.29
- pIC50 (Kasumi 1): 8.66
- pIC50 (KU-19-19): < 6.29
- pIC50 (KYSE-70 cell line): < 6.29
- pIC50 (LB647-SCLC): < 6.29
- pIC50 (LC4-1): < 6.29
- pIC50 (LK-2): < 6.29
- pIC50 (M059J): < 6.29
- pIC50 (MDA-MB-453): < 6.29
- pIC50 (NB1): < 6.29
- pIC50 (NCI-H1436): < 6.29
- pIC50 (NCI-H1694): < 6.29
- pIC50 (NCI-H2052): 6.50
- pIC50 (NCI-H2170): < 6.29
- pIC50 (NCI-H2228): < 6.29
- pIC50 (NCI-H716): 6.79
- pIC50 (NCI-H748): < 6.29
- pIC50 (PC-3): < 6.29
- pIC50 (PFSK-1): < 6.29
- pIC50 (REH): < 6.29
- pIC50 (RPMI-6666): < 6.29
- pIC50 (RT-112): 6.62
- pIC50 (SCC-4): < 6.29
- pIC50 (SK-MES-1): < 6.29
- pIC50 (SU-DHL-1): 7.20
- pIC50 (SW1417): < 6.29
- pIC50 (T84): < 6.29
- pIC50 (T98G): 6.71
- pIC50 (A2058): < 6.29
- pIC50 (ACHN): 6.53
- pIC50 (BC1 cell line): < 6.29
- pIC50 (BC-3): < 6.29
- pIC50 (BFTC-909): < 6.29
- pIC50 (BHY): < 6.29
- pIC50 (CAKI-1): 6.66
- pIC50 (TYK-nu): < 6.29
- pIC50 (CESS): < 6.29

SMILES: CC(C)C[C@H](NC(=O)[C@H](Cc1ccccc1)NC(=O)c1cnccn1)B(O)O [BORTEZOMIB]
- pIC50 (CPC-N): < 7.70
- pIC50 (EB-3): 8.58
- pIC50 (IMR-5): < 7.70
- pIC50 (JIYOYE): 8.30
- pIC50 (KARPAS-422): < 7.70
- pIC50 (Kasumi 1): < 7.70
- pIC50 (LB647-SCLC): 8.37
- pIC50 (LC4-1): 8.75
- pIC50 (NB1): 8.16
- pIC50 (NB17): 8.69
- pIC50 (NB7): 7.80
- pIC50 (NCI-H1436): 7.77
- pIC50 (NCI-H1694): 8.12
- pIC50 (NCI-H716): < 7.70
- pIC50 (NCI-H748): 8.62
- pIC50 (REH): < 7.70
- pIC50 (RPMI-6666): < 7.70
- pIC50 (SU-DHL-1): 8.14
- pIC50 (BC1 cell line): 8.64
- pIC50 (BC-3): 8.18
- pIC50 (CESS): 9.27
